This passage reports IC50 and EC50 results from US11091428B2 (HAPLOGEN GMBH, priority 2016, dated 2021).

Molecules are shown by their SMILES. Like-named read-outs stand apart in the source and are kept apart here.

One assay has as its target T1, PLA2G16 (Homo sapiens, UniProt P53816).
T1 construct: Hexa-His (N); made in house; host or cells: E. coli BL21(DE3)
T1 sequence (P53816 1-162): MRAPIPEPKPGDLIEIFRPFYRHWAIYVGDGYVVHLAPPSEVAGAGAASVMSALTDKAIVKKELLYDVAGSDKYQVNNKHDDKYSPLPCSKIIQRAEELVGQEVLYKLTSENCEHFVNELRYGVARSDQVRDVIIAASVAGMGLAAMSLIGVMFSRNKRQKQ
Description: Enzyme activity assay for PLA2G16 (Red/Green BODIPY PC-A2 fluorescence). Type of assay: biochemical. As to conditions: His-tagged PLA2G16, 4 min pre-incubation, 2 nM to 50 μM; read-out: IC50 values of the compounds determined in the enzyme activity assay for PLA2G16. Summed up:
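IC50 from non-linear fits of fluorescence rise (480/530 nm, 10 min) after adding Red/Green BODIPY PC-A2 mixed with DOPC/DOPG/cholesterol liposomes. Recombinant His-tagged human enzyme, bacterially expressed, was first exposed to inhibitor (2 nM–50 μM final) for 4 min in 50 mM Tris pH 8.5, 100 mM NaCl, 5 mM glutathione.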

Assay [1] concerns picornaviruses (CVB1, HRV-A2, HRV-A23, EV-68). Description: Anti-picornavirus cytopathic effect (CPE) reduction assay on HeLa H1 cells. Type of assay: cell-based. Conditions: HeLa H1 cells, 48 h, category from averaging the EC50 values from four picornaviruses (CVB1, HRV-A2, HRV-A23, EV68), read-out: EC50 values of the compounds determined in the anti-picornavirus assay. Summed up: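 Cytopathic-effect protection: EC50 from non-linear regression of cell viability (CellTiterBlue, 560/590 nm) 48 h post-infection, scaled between infected and mock-infected vehicle wells. Compound dilutions added to HeLa H1 cells 2 h before virus (MOI causing complete CPE within 2 days), in DMEM + 2% FBS; categories average the four viruses.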

Turning to `CC(=O)NCCCCCCNC(=O)C(=O)C1CCC(=O)N1Cc1ccccc1` (stereo not drawn) [FP 328, 2-(1-Benzyl-5-oxopyrrolidin-2-yl)-N-(6-acetamidohexyl)-2-oxoacetamide], the IC50 at PLA2G16 is less than 1000 nM. Besides, the EC50 in assay [1] (Enterovirus B, HeLa H1, 48 h) fell in the range of 1000 to 10000 nM.

As for `CC(C(=O)C(=O)NCC1CCCCC1)N(C(=O)CNS(C)(=O)=O)C1CCCCC1` (stereo not drawn) [FP 162, 3-(N-Cyclohexyl-2-methanesulfonamidoacetamido)-N-(cyclohexylmethyl)-2-oxobutanamide], the IC50 at PLA2G16 lay in the range of 10000 to 50000 nM. Besides, in assay [1] (Enterovirus B, HeLa H1, 48 h), the EC50 was greater than 10000 nM.

On to `O=C(NC1CN(S(=O)(=O)C2CCCC2)C1)C(=O)[C@H]1CCC(=O)N1Cc1ccccc1` [FP 322, 2-[(2R)-1-Benzyl-5-oxopyrrolidin-2-yl]-N-[1-(cyclopentanesulfonyl)azetidin-3-yl]-2-oxoacetamide], for which the half-maximal inhibitory concentration (IC50) on PLA2G16 is less than 1000 nM. Moreover, the EC50 in assay [1] (Enterovirus B, HeLa H1, 48 h) is less than 1000 nM.

On to `O=C(NCC1CC1)C(=O)C1CCC(=O)N1c1ccccc1` (stereo not drawn) [FP 264, N-(Cyclopropylmethyl)-2-oxo-2-(5-oxo-1-phenylpyrrolidin-2-yl)acetamide], for which the IC50 at PLA2G16 is 1000 to 10000 nM. Also, in assay [1] (Enterovirus B, HeLa H1, 48 h), the EC50 was greater than 10000 nM.

With `CC(C)C(=O)N(C)CCNC(=O)C(=O)[C@H]1CCC(=O)N1Cc1ccccc1` [FP 333, N-(2-{2-[(2R)-1-Benzyl-5-oxopyrrolidin-2-yl]-2-oxoacetamido}ethyl)-N,2-dimethyl-propanamide], on PLA2G16, the IC50 is less than 1000 nM. The EC50 in assay [1] (Enterovirus B, HeLa H1, 48 h) lay in the range of 1000 to 10000 nM.

As to `O=C(NC1CC1)C(=O)C1CCC(=O)N1CC1CCCC1` (stereo not drawn) [FP 279, 2-[1-(Cyclopentylmethyl)-5-oxopyrrolidin-2-yl]-N-cyclopropyl-2-oxoacetamide], at PLA2G16, the IC50 was less than 1000 nM. Further, the EC50 in assay [1] (Enterovirus B, HeLa H1, 48 h) lay within 1000 to 10000 nM.

As to `O=C(NC1CC(F)(F)C1)C(=O)[C@H]1CCC(=O)N1Cc1ccccc1` [FP 268, 2-[(2R)-1-Benzyl-5-oxopyrrolidin-2-yl]-N-(3,3-difluorocyclobutyl)-2-oxoacetamide], the half-inhibitory concentration (IC50) on PLA2G16 is less than 1000 nM. Moreover, in assay [1] (Enterovirus B, HeLa H1, 48 h), the EC50 was less than 1000 nM.

With `CNC(=O)C(=O)C(CC(C)C)N(C=O)Cc1ccccc1` (stereo not drawn) [FP 195, 3-(N-Benzylformamido)-N,5-dimethyl-2-oxohexanamide], the IC50 at PLA2G16 was less than 1000 nM. Further, in assay [1] (Enterovirus B, HeLa H1, 48 h), the EC50 lay in the range of 1000 to 10000 nM.

On to `CCC(NC(=O)c1cnccc1C)C(=O)C(=O)NCC1CCCCC1` (stereo not drawn) [FP 211, N-(Cyclohexylmethyl)-3-[(4-methylpyridin-3-yl)formamido]-2-oxopentanamide], for which, on PLA2G16, the IC50 is less than 1000 nM. In addition, in assay [1] (Enterovirus B, HeLa H1, 48 h), the EC50 was in the range of 1000 to 10000 nM.

In the case of `CC(C)CC(C(=O)C(=O)NCC1CC1)N(C=O)C[C@H]1CCOC1` (stereo partly drawn) [FP 65, N-(Cyclopropylmethyl)-5-methyl-2-oxo-3-(N-{[(3R)-oxolan-3-yl]methyl}formamido) hexanamide], the IC50 on PLA2G16 is less than 1000 nM. In assay [1] (Enterovirus B, HeLa H1, 48 h), the EC50 lay in the range of 1000 to 10000 nM.

`O=C(NC1CCN(S(=O)(=O)C2CCCC2)CC1)C(=O)[C@H]1CCC(=O)N1Cc1ccccc1` [FP 321, 2-[(2R)-1-Benzyl-5-oxopyrrolidin-2-yl]-N-[1-(cyclopentanesulfonyl)piperidin-4-yl]-2-oxoacetamide]: the IC50 on PLA2G16 is less than 1000 nM. The EC50 in assay [1] (Enterovirus B, HeLa H1, 48 h) was less than 1000 nM.

Turning to `O=CN(Cc1ccccc1)C(C(=O)C(=O)NCC1CC1)C1CC1` (stereo not drawn) [FP 67, 3-(N-Benzylformamido)-3-cyclopropyl-N-(cyclopropylmethyl)-2-oxopropanamide], the IC50 at PLA2G16 was less than 1000 nM. Besides, the EC50 in assay [1] (Enterovirus B, HeLa H1, 48 h) was less than 1000 nM.

Turning to `CC(C)CN(C=O)C(C(=O)C(=O)NCC1CC1)C(C)C` (stereo not drawn) [FP 30, N-(Cyclopropylmethyl)-4-methyl-3-[N-(2-methylpropyl)formamido]-2-oxopentanamide], on PLA2G16, the IC50 was less than 1000 nM. The EC50 in assay [1] (Enterovirus B, HeLa H1, 48 h) is 1000 to 10000 nM.

Take `CC(C(=O)C(=O)NCC1CC1)N(C=O)CC(C)(C)C` (stereo not drawn) [FP 41, N-(Cyclopropylmethyl)-3-[N-(2,2-dimethylpropyl)formamido]-2-oxobutanamide]: the IC50 at PLA2G16 is less than 1000 nM. Further, the EC50 in assay [1] (Enterovirus B, HeLa H1, 48 h) fell in the range of 1000 to 10000 nM.

In the case of `C[C@@H]1CC(=O)N(Cc2ccccc2)[C@@H]1C(=O)C(=O)NC1CC1` (single isomer, unassigned) [FP 338], the IC50 at PLA2G16 was less than 1000 nM. In addition, the EC50 in assay [1] fell in the range of 1000 to 10000 nM.

Take `CCC(C(=O)C(=O)NCc1cccc(Cl)c1)N(C=O)c1ccccc1OC` (stereo not drawn) [FP 12, N-[(3-Chlorophenyl)methyl]-3-[N-(2-methoxyphenyl)formamido]-2-oxopentanamide]: at PLA2G16, the IC50 is less than 1000 nM. Moreover, the EC50 in assay [1] (Enterovirus B, HeLa H1, 48 h) lay in the range of 1000 to 10000 nM.

`CC(C)C(=O)NCCNC(=O)C(=O)[C@H]1CCC(=O)N1Cc1ccccc1` [FP 331, N-(2-{2-[(2R)-1-Benzyl-5-oxopyrrolidin-2-yl]-2-oxoacetamido}ethyl)-2-methyl-propanamide]: the IC50 at PLA2G16 was less than 1000 nM. Moreover, in assay [1] (Enterovirus B, HeLa H1, 48 h), the EC50 was 1000 to 10000 nM.

Turning to `CC(C(=O)C(=O)NCC1CCC1)N(C=O)Cc1ccccc1` (stereo not drawn) [FP 201, 3-(N-Benzylformamido)-N-(cyclobutylmethyl)-2-oxobutanamide], on PLA2G16, the IC50 was less than 1000 nM. Moreover, the EC50 in assay [1] (Enterovirus B, HeLa H1, 48 h) is less than 1000 nM.

Consider `CC(=O)NCCCCCCNC(=O)C(=O)C1CCC(=O)N1Cc1ccc(Cl)cc1` (stereo not drawn) [FP 330, 2-{1-[(4-Chlorophenyl)methyl]-5-oxopyrrolidin-2-yl}-N-(6-acetamidohexyl)-2-oxoacetamide], for which the IC50 on PLA2G16 was less than 1000 nM. Moreover, the EC50 in assay [1] (Enterovirus B, HeLa H1, 48 h) was 1000 to 10000 nM.

As to `O=C(NCCc1ccncc1)C(=O)C1CCC(=O)N1Cc1ccccc1` (stereo not drawn) [FP 226, 2-(1-Benzyl-5-oxopyrrolidin-2-yl)-2-oxo-N-[2-(pyridin-4-yl)ethyl]acetamide], on PLA2G16, the IC50 is less than 1000 nM. In addition, the EC50 in assay [1] (Enterovirus B, HeLa H1, 48 h) lay in the range of 1000 to 10000 nM.

For the molecule `Cc1csc(CN2C(=O)CCC2C(=O)C(=O)NCC2CC2)n1` (stereo not drawn), the IC50 on PLA2G16 is less than 1000 nM. For the same molecule, the EC50 in assay [1] (Enterovirus B, CVB1|EV68|HRVA2|HRVA23, HeLa H1, 48 h) is 1000 to 10000 nM.

As to `O=C(NCCCO)C(=O)C1CCC(=O)N1Cc1ccc(Cl)cc1` (stereo not drawn) [FP 275, 2-{1-[(4-Chlorophenyl)methyl]-5-oxopyrrolidin-2-yl}-N-(3-hydroxypropyl)-2-oxoacetamide], at PLA2G16, the IC50 is less than 1000 nM. The EC50 in assay [1] (Enterovirus B, HeLa H1, 48 h) is greater than 10000 nM.

`O=C(N[C@@H]1C[C@@H]1F)C(=O)C1N(Cc2ccccc2)C(=O)CC12CC2` (stereo partly drawn) [FP 346, 2-{5-Benzyl-6-oxo-5-azaspiro[2.4]heptan-4-yl}-N-[(1R,2S)-2-fluorocyclopropyl]-2-oxoacetamide]: the IC50 on PLA2G16 is less than 1000 nM. Further, the EC50 in assay [1] (Enterovirus B, HeLa H1, 48 h) was less than 1000 nM.

For the molecule `O=C(NCc1ncccn1)C(=O)[C@H]1CCC(=O)N1Cc1ccccc1` [FP 298, 2-[(2R)-1-Benzyl-5-oxopyrrolidin-2-yl]-2-oxo-N-[(pyrimidin-2-yl)methyl]acetamide], the IC50 at PLA2G16 is less than 1000 nM. Also, in assay [1] (Enterovirus B, HeLa H1, 48 h), the EC50 was 1000 to 10000 nM.

Regarding `C[C@@H]1CC(=O)N(Cc2ccccc2)[C@H]1C(=O)C(=O)NCC1CC1` (single isomer, unassigned) [FP 336], the IC50 on PLA2G16 was less than 1000 nM. In addition, in assay [1] (Enterovirus B, HeLa H1, 48 h), the EC50 was less than 1000 nM.

As to `O=C(NC1CC1)C(=O)C1N(Cc2ccccc2)C(=O)CC12CC2` (stereo not drawn) [FP 345, 2-{5-Benzyl-6-oxo-5-azaspiro[2.4]heptan-4-yl}-N-cyclopropyl-2-oxoacetamide], on PLA2G16, the IC50 is less than 1000 nM. The EC50 in assay [1] (Enterovirus B, HeLa H1, 48 h) was less than 1000 nM.

Turning to `O=C(NCCCc1ccncc1)C(=O)C1CCC(=O)N1Cc1ccccc1` (stereo not drawn) [FP 228, 2-(1-Benzyl-5-oxopyrrolidin-2-yl)-2-oxo-N-[3-(pyridin-4-yl)propyl]acetamide], the IC50 on PLA2G16 was less than 1000 nM. The EC50 in assay [1] (Enterovirus B, HeLa H1, 48 h) lay within 1000 to 10000 nM.
